Laboratory results: patent US10898537B2, “Transdermal formulations for delivery of capsaicinoids” (DELIVRA INC., priority 2015, dated 2021)

Assay: PAMPA assay, flux of capsaicin and osthole from buffer solutions with penetration enhancers (Experiments 1 and 2)
Assay type: in vitro ADME
Protocol: A. Preparation of Standards:
1 mg/mL stock solutions of polygodial, tetrahydropiperine (Cosmoperine™), osthole, dimethylisosorbide (DMI), Tazmanian Mountain Pepper (TMP), capsaicin and warfarin were prepared in methanol and stored at −20 ° C.
Prisma buffer preparation: Added 1.25 mL of Prisma™ HT buffer to 48.75 mL distilled water. Adjusted to pH 7.0 by adding 0.5 M NaOH dropwise.
50 μg/mL solutions of capsaicin, warfarin and osthole were prepared by adding 50 μL of the 1 mg/mL solutions to 950 μL of MeOH:H2O (50:50).
Donor Well Solutions: Experiment 1—Polygodial, Osthole and Capsaicin with DMI and THP
Preparation of Capsaicin Solutions:
5 μg/mL solution of capsaicin was prepared in Prisma™ buffer solution by adding 5 μL of 1 mg/mL solution of capsaicin to 0.995 mL Prisma™ buffer.
5 μg/mL of capsaicin+5 μg/mL solution of DMI was prepared in Prisma™ buffer solution by adding 5 μL of 1 mg/mL of DMI and 5 μL of 1 mg/mL of capsaicin solution to 0.990 mL Prisma™ buffer.
5 μg/mL of capsaicin+5 μg/mL solution of THP was prepared in Prisma™ buffer solution by adding 5 μL of 1 mg/mL of THP and 5 μL of 1 mg/mL of capsaicin solution to 0.990 mL Prisma™ buffer.
Preparation of Osthole Solutions:
5 μg/mL solution of osthole was prepared in Prisma™ buffer solution by adding 5 μL of 1 mg/mL solution of osthole to 0.995 mL Prisma™ buffer.
5 μg/mL of osthole+5 μg/mL solution of DMI was prepared in Prisma™ buffer solution by adding 5 μL of 1 mg/mL of DMI and 5 μL of 1 mg/mL of osthole solution to 0.990 mL Prisma™ buffer.
5 μg/mL of osthole+5 μg/mL solution of THP was prepared in Prisma™ buffer solution by adding 5 μL of 1 mg/mL of THP and 5 μL of 1 mg/mL of osthole solution to 0.990 mL Prisma™ buffer.
Donor Well Solutions: Experiment 2—Osthole and Capsaicin with Polygodial, TMP and THP
5 μg/mL solution of capsaicin was prepared in Prisma™ buffer solution by adding 5 μL of 1 mg/mL solution of capsaicin to 0.995 mL Prisma™ buffer. (Solution A)
5 μg/mL of capsaicin+5 μg/mL solution of polygodial was prepared in Prisma™ buffer solution by adding 5 μL of 1 mg/mL of polygodial and 5 μL of 1 mg/mL of capsaicin solution to 0.990 mL Prisma™ buffer. (Solution B)
5 μg/mL of capsaicin+5 μg/mL solution of TMP was prepared in Prisma™ buffer solution by adding 5 μL of 1 mg/mL of TMP and 5 μL of 1 mg/mL of capsaicin solution to 0.990 mL Prisma™ buffer. (Solution C)
5 μg/mL of capsaicin+5 μg/mL TMP+5 μg/mL solution of tetrahydropiperine was prepared in Prisma™ buffer solution by adding 5 μL of 1 mg/mL of TMP and 5 μL of 1 mg/mL tetrahydropiperine and 5 μL of 1 mg/mL of capsaicin solution to 0.985 mL Prisma™ buffer. (Solution D)
5 μg/mL of capsaicin+5 μg/mL solution of tetrahydropiperine was prepared in Prisma™ buffer solution by adding 5 μL of 1 mg/mL of tetrahydropiperine and 5 μL of 1 mg/mL of capsaicin solution to 0.990 mL Prisma™ buffer. (Solution E)
5 μg/mL solution of osthole was prepared in Prisma™ buffer solution by adding 5 μL of 1 mg/mL solution of osthole to 0.995 mL Prisma™ buffer. (Solution F)
5 μg/mL of osthole+5 μg/mL solution of polygodial was prepared in Prisma™ buffer solution by adding 5 μL of 1 mg/mL of polygodial and 5 μL of 1 mg/mL of osthole solution to 0.990 mL Prisma™ buffer. (Solution G)
5 μg/mL of osthole+5 μg/mL solution of TMP was prepared in Prisma™ buffer solution by adding 5 μL of 1 mg/mL of TMP and 5 μL of 1 mg/mL of osthole solution to 0.990 mL Prisma™ buffer. (Solution H)
5 μg/mL of osthole+5 μg/mL TMP+5 μg/mL solution of tetrahydropiperine was prepared in Prisma™ buffer solution by adding 5 μL of 1 mg/mL of TMP and 5 μL of 1 mg/mL tetrahydropiperine and 5 μL of 1 mg/mL of osthole solution to 0.985 mL Prisma™ buffer. (Solution I)
5 μg/mL of osthole+5 μg/mL solution of tetrahydropiperine was prepared in Prisma™ buffer solution by adding 5 μL of 1 mg/mL of tetrahydropiperine and 5 μL of 1 mg/mL of osthole solution to 0.990 mL Prisma™ buffer. (Solution J) […]

SMILES: CC1(C)CCC[C@]2(C)[C@@H](C=O)C(C=O)=CC[C@@H]12 [polygodial]
- effect of natural penetration enhancer on capsaicin flux in the PAMPA system (PAMPA): appear to decreased the flux rate of capsaicin

SMILES: COc1ccc2ccc(=O)oc2c1CC=C(C)C [osthole]
- concentration quantified in the acceptor well (alone, donor 5 μg/mL, 2.0 hours): 4 ng/mL
- concentration quantified in the acceptor well (alone, donor 5 μg/mL, 2.5 hours): 89 ng/mL
- concentration quantified in the acceptor well (alone, donor 5 μg/mL, 5.0 hours): 445 ng/mL
- concentration quantified in the acceptor well (with equimass DMI (5 μg/mL), 2.0 hours): 95 ng/mL
- concentration quantified in the acceptor well (with equimass DMI (5 μg/mL), 2.5 hours): 232 ng/mL
- concentration quantified in the acceptor well (with equimass DMI (5 μg/mL), 5.0 hours): 510 ng/mL
- concentration quantified in the acceptor well (with equimass THP (5 μg/mL), 2.0 hours): 261 ng/mL
- concentration quantified in the acceptor well (with equimass THP (5 μg/mL), 2.5 hours): 324 ng/mL
- concentration quantified in the acceptor well (with equimass THP (5 μg/mL), 5.0 hours): 549 ng/mL

SMILES: CO[C@H]1CO[C@H]2[C@@H]1OC[C@H]2OC [DMI, Dimethyl Isosorbide]
- effect of penetration enhancer on capsaicin flux in the PAMPA system (Experiment 1, vs capsaicin alone over five hours): neither penetration enhancer demonstrated a statistically significant increase in capsaicin flux
- effect of penetration enhancer on osthole flux in the PAMPA system (Experiment 1, vs osthole alone over five hours): No observable enhancement
